The text below walks through data of patent publication EP4635969A1, “NOVEL GLUCOCORTICOID, METHOD FOR PREPARING SAME, AND USE THEREOF” (Tianjin Pharmaceutical Biotechnology Co., Ltd., priority 2022, dated 2024).

Data set [1] relates to psoriasis model mice. Kind of data set: Psoriasis experiment (imiquimod model): skin lesion (PASI) score. Format: in vivo. The conditions noted are these: for PASI scores: compared with the model group.
Data set [2] deals with epidermal layer in rats. As to the kind of experiment: Adverse reactions of continuous dermal administration: thickness of the epidermal layer (H&E sections). Format: in vivo, SD rats. To be noted: for thickness of the epidermal layer after continuous dermal administration: compared with the blank control group. The text has this:
Pharmacological Example 10: Experiment on Adverse Reactions of Continuous Dermal Administration in Rats
Animals: SD rats, SPF grade, with an equal number of males and females, weighing 230-250 g.
Animal grouping: After adaptive feeding, the rats were randomly divided into 4 groups. […] One day before administration, the backs of rats were shaved at an area of 5 cm × 6 cm. […] The rats in the blank control group were applied with the blank matrix of corresponding mass on their backs, twice a day for a consecutive week. Table 21. Animal grouping and drug administration dosages for the experiment on adverse reactions of continuous dermal administration in rats
To examine the effects of continuous administration of the test samples on the epidermal layer, the back skin tissues were stained with hematoxylin and eosin (H&E) (magnification ×40), and the thickness of the epidermal layer was quantitatively measured based on the H&E-stained sections.

In data set [3] the test system is inflammatory cytokines IL-6 and IL-12. As to the kind of experiment: Anti-asthma pharmacodynamic experiment: inflammatory cytokines in bronchoalveolar lavage fluid (ELISA). The conditions noted are these: compared with the model group. In kind it is in vivo, female BALB/c mice. (In general: ELISA stands for enzyme-linked immunosorbent assay.)
For data set [4], the system named is dry eye syndrome model New Zealand rabbits. As to the kind of experiment: Dry eye syndrome experiment (benzalkonium chloride model): tear secretion test with phenol red cotton threads. In kind it is in vivo, male New Zealand White rabbits. The conditions noted are these: compared with the model group.
Description: Positive control drug: Fluorometholone Eye Drops (specification: 5 mL/5 mg; Santen Pharmaceutical (CHINA) Co., Ltd.; Lot No.: 1FM6625) was used as the positive control drug and stored at room temperature protected from light until use.
Thirty male New Zealand White rabbits (conventional grade) were prepared. Six rabbits were randomly selected as the blank control group, and the remaining animals were administered 0.1% benzalkonium chloride to the left eye twice daily (morning and evening) , 10 µL/animal each time. On day 6 of modeling, tear secretion was measured using phenol red cotton threads to determine whether the model was successfully established. […] During the administration, all animals except the blank control group were administered 10 µL of 0.1% benzalkonium chloride to the left eye once daily to maintain dry eye symptoms..
• Test time: D3, D7, D15; • Test animals: All animals were tested before grouping; all enrolled surviving animals were tested after administration; • Test method: Tear secretion was measured using phenol red cotton threads. The tear secretion test paper was folded and placed at the middle and outer 1/3 of the rabbit palpebral conjunctival sac for 1 min. The test paper was then removed, observed, and recorded for its wetting length. The test was repeated 3 times, and the values were averaged.
The normality and homogeneity of variance were tested by Levene's test. If there was no statistical significance (P > 0.05), one-way analysis of variance (ANOVA) was used for statistical analysis. If ANOVA was statistically significant (P ≤ 0.05), LSD test (parametric method) was used for comparative analysis. If the variance was heterogeneous (P ≤ 0.05), Kruskal-Wallis test was used. If the Kruskal-Wallis test was statistically significant (P ≤ 0.05), Dunnett's test (nonparametric method) was used for comparative analysis.
Data set [5] relates to IL-17. As to the kind of experiment: Psoriasis experiment (imiquimod model): inflammatory cytokine in serum (ELISA). In kind it is in vivo, mice. The conditions noted are these: for level of IL-17 / inflammatory cytokines in psoriasis model mice: compared with the model group.
Description: Positive control drug: Fluticasone Propionate Cream (specification: 0.05% × 15 g, Zhejiang Xianju Pharmaceutical Co. Ltd., Lot No. 211106), stored at room temperature protected from light until use.
Adult mice were selected, and the skin of 2 cm × 3 cm on the back of mice was locally depilated. The mice in the model group and drug administration group were applied with 62.5 mg of 5% imiquimod cream on their back for modeling, while the mice in the blank control group were applied with medical petroleum jelly on their back daily. The above procedures were performed once a day for 7 consecutive days.
The mice in the drug administration group were applied with the corresponding drugs on their backs daily at a dose of 0.2 g per mouse, while the blank control group and the model group were only applied with 0.2 g of the test sample drug matrix. One hour after drug administration, the drugs were wiped off with sterile cotton swabs, followed by the application of imiquimod. The above procedures were performed once a day for 7 consecutive days.
After the PASI scoring on day 8 of modeling, blood was collected from the orbital sinus of mice and centrifuged at 3000 rpm for 10 min. The supernatant was extracted to measure the level of IL-17. All procedures were performed following the instructions of the ELISA kit.
Statistical analysis was performed using SPSS software, and the results were expressed as mean ± standard deviation. One-way ANOVA was used for intergroup comparisons. For data with homogeneous variance, the LSD test was used; for data with heterogeneous variance, the Dunnett-t test was used. A value of P < 0.05 was considered statistically significant.
The nature of data set [6]: Pharmacokinetic (PK) experiment in rats. In kind it is in vivo, male SD rats. The conditions noted are these: same experimental conditions. On the procedure: Pharmacological Example 11. Pharmacokinetic (PK) Experiment in Rats
The solution was prepared before administration.
Animals: 6 male SD rats, SPF grade (Beijing Vital River Laboratory Animal Technology Co., Ltd.).
Animal grouping: The animals were weighed prior to administration, and the dosage was calculated based on body weight. The animals in the oral administration group were fasted overnight (10-14 hours) before administration, and food was reintroduced 4 hours post-administration. Table 23. Animal grouping and drug administration dosages for pharmacokinetic (PK) experiment in rats
Blood collection time points: Blood was collected from the jugular vein at 2 min, 5 min, 15 min, 30 min, 1 h, 2 h, 4 h, 8 h, and 24 h after administration. Approximately 0.25 mL of blood was collected for each sample, anticoagulated with heparin sodium, and then placed on ice immediately.
Plasma sample processing: Blood samples were placed on ice after collection and centrifuged to separate plasma within 1 hour (centrifugation conditions: 6000 rpm, 3 minutes, 2-8 °C ). Plasma samples were stored in a -80°C freezer before analysis.
Data processing: Pharmacokinetic parameters were calculated using Phoenix WinNonlin 8.2.0 based on the plasma drug concentration data at different time points.

Data set [7] relates to asthma model mice. As to the kind of experiment: Anti-asthma pharmacodynamic experiment: airway hyperresponsiveness (Penh) after methacholine challenge. To be noted: compared with the model group. In kind it is in vivo, female BALB/c mice.
The subject of data set [8] is inflammatory cytokines (TNF-α). Kind of data set: Anti-uveitis pharmacodynamic experiment (LPS model): inflammatory cytokines in aqueous humor (ELISA). Format: in vivo, male SD rats. The conditions noted are these: values not given. On the procedure:
Pharmacological Example 5. Pharmacodynamic Experiment on Anti-Uveitis
Test samples: Compounds 23 and 26 were prepared as 5 mg/5 mL ophthalmic suspensions with reference to the formulation of Fluorometholone Eye Drops, and stored at room temperature protected from light until use.
Positive control drug: Fluorometholone Eye Drops (specification: 5 mL/5 mg; Santen Pharmaceutical (CHINA) Co., Ltd.; Lot No. : J20180068) was used as the positive control drug and stored at room temperature protected from light until use.
Fifty male SD rats underwent a one-week adaptive feeding period. The animals were randomly divided into 5 groups: Group 1 served as the blank control group, and Groups 2 to 5 were the model group, fluorometholone group, compound 23 group, and compound 26 group, respectively. Groups 2 to 5 were used to establish rat uveitis models by single subcutaneous injection of 1 mg/kg LPS (Salmonella; Sigma; Lot No. 0000164114) into the plantar tissue of the hindpaw. Salmonella endotoxin was dissolved in normal saline to prepare an injection solution at a concentration of 2 mg/mL, which was injected subcutaneously at 1 mg/kg into the plantar tissue of one paw of the rats. Group 1 was injected with an equal volume of normal saline.
After modeling, 40 µL of normal saline was administered to the eyes (bilateral) of the rats in the blank control group and model group, and 40 µL of the corresponding drugs were administered to the eyes (bilateral) of the […] in the compound 23 group, compound 26 group, and positive drug fluorometholone group, 3 times a day for 2 days. Table 8. Animal grouping and drug administration dosages
Thirty hours after modeling, aqueous humor was collected from both eyes of rats, and partial eyeball tissues of rats were collected. The level of the inflammatory cytokines (TNF-α) was detected using a rat ELISA assay kit.
Statistical analysis was performed using SPSS software. Measurement data were expressed as mean ± standard deviation. One-way ANOVA was used for intergroup comparisons. For data with homogeneous variance, LSD test was used; for data with heterogeneous variance, Dunnett-t test was used. A value of P < 0.05 was considered statistically significant.

The subject of data set [9] is uveitis model rats. Kind of data set: Anti-uveitis pharmacodynamic experiment (LPS model): ocular pathological score. In kind it is in vivo, male SD rats. The conditions noted are these: compared with the model group.

Molecules are shown by their SMILES.

`C[C@]12C=CC(=O)C=C1CC[C@H]1[C@@H]3C[C@H]4OC(c5ccc(COC6CCOC6=O)cc5)O[C@@]4(C(=O)CO)[C@@]3(C)C[C@H](O)[C@@]12F` (stereo partly drawn) [Compound 16, (6aS,6bR,7S,8aS,8bS,11aR,12aS,12bS)-6b-Fluoro-7-hydroxy-8b-(2-hydroxyacetyl)-6a,8a-dimethyl-10-(4-(((2-oxotetrahydrofuran-3-yl)oxy)methyl)phenyl)-1,2,6a,6b,7,8,8a,8b,11a,12,12a,12b-do decahydro-4H-naphtho[2',1':4,5]indeno[1,2-d][1,3]dioxol-4-one]: the PASI scores entry in data set [1] is reported as “significantly decreased PASI scores on day 7”. For the same compound, the “thickness of the epidermal layer after continuous dermal administration” value in [2] is listed as “no significant changes in the thickness of the epidermal layer observed”. Further, the “Effects on inflammatory cytokines in bronchoalveolar lavage fluid of mice” value in data set [3] is “pharmacological effects similar to those of compound 23”. The tear secretion entry in data set [4] was “significantly increased the tear secretion”. Further, in [5], the “level of IL-17 / inflammatory cytokines in psoriasis model mice” value is recorded as “significantly inhibited inflammatory cytokines in the skin of psoriasis model mice”. Moreover, the “pharmacokinetic properties (plasma clearance rate, systemic exposure)” value in [6] is listed as “pharmacokinetic properties similar to those of compound 8”. The “Effects on airway hyperresponsiveness (Penh values) in mice” value in data set [7] is on record as “significantly decreased the Penh values in mice”. Besides, the “inflammatory cytokines in aqueous humor” value in [8] is “suppressed inflammatory cytokines in aqueous humor”. The “ocular abnormalities / ocular pathological score” value in [9] is listed as “significantly improved ocular abnormalities”.
On to `C[C@]12C=CC(=O)C=C1CC[C@H]1[C@@H]3C[C@H]4OC(c5ccc(CSC6CCOC6=O)cc5)O[C@@]4(C(=O)CO)[C@@]3(C)C[C@H](O)[C@@]12F` (stereo partly drawn) [Compound 17, (6aS,6bR,7S,8aS,8bS,11aR,12aS,12bS)-6b-Fluoro-7-hydroxy-8b-(2-hydroxyacetyl)-6a,8a-dimethyl-10-(4-(((2-oxotetrahydrofuran-3-yl)thio)methyl)phenyl)-1,2,6a,6b,7,8,8a,8b,11a,12,12a,12b-do decahydro-4H-naphtho[2',1':4,5]indeno[1,2-d][1,3]dioxol-4-one], for which, in data set [1], the PASI scores entry was “PASI scores significantly decreased on day 7”. This compound yielded a PASI score in [1] (day 8 of modeling, 0.2 g cream per mouse daily for 7 days (compounds 1 mg/g, fluticasone propionate 0.5 mg/g)) of 4.5 ± 0.6. Also, in [2] (100 mg cream on the back twice a day for a week (compounds 1 mg/g, Compound Dexamethasone Acetate 0.75 mg/g)), the “Epidermal layer thickness (µm)” value is 23.5 ± 3.5 µm. Moreover, the “thickness of the epidermal layer after continuous dermal administration” value in [2] was “no significant changes in the thickness of the epidermal layer were observed”. For the same compound, in data set [3], the “Effects on inflammatory cytokines in bronchoalveolar lavage fluid of mice” value is “pharmacological effects similar to those of compound 23”. Further, the tear secretion entry in data set [4] was “significantly increased the tear secretion”. In addition, in [5], the “level of IL-17 / inflammatory cytokines in psoriasis model mice” value was “significantly decreased the level of IL-17”. The “IL-17” value in [5] (serum, day 8 of modeling, 0.2 g cream per mouse daily for 7 days) stood at 31.30 ± 14.99 pg/mL. The “pharmacokinetic properties (plasma clearance rate, systemic exposure)” value in data set [6] is given as “pharmacokinetic properties similar to those of compound 8”. The “Effects on airway hyperresponsiveness (Penh values) in mice” value in [7] is recorded as “significantly decreased the Penh values in mice”. Besides, the “inflammatory cytokines in aqueous humor” value in data set [8] is given as “suppressed inflammatory cytokines in aqueous humor”. Further, the “ocular abnormalities / ocular pathological score” value in [9] is listed as “significantly improved ocular abnormalities”.
